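Exposure lasted 48 hours, with cells grown in 96-well plates and compounds tested at five concentrations. TGI: total growth inhibition.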
Columns and labels:
Test in all cases: DTP human tumour cell line panel, 48 h
[1] = system: A549 NSCLC
[2] = system: CAKI-1 renal
[3] = system: DLD-1 colon
[4] = system: DMS 114 small cell lung
[5] = system: DMS 273 small cell lung
[6] = system: HCT-15 colon
[7] = system: KM12 colon
[8] = system: KM20L2 colon
[9] = system: LOX IMVI melanoma
[10] = system: LXFL 529 NSCLC
[11] = system: M19-MEL melanoma
[12] = system: RPMI-8226 leukemia
[13] = system: SK-MEL-28 melanoma
[14] = system: SNB-78 CNS
[15] = system: SW-620 colon
[16] = system: UACC-257 melanoma
[17] = system: SK-OV-3 ovarian

Structure (SMILES)	TGI [1] [µM]	TGI [2] [µM]	TGI [3] [µM]	TGI [4] [µM]	TGI [5] [µM]	TGI [6] [µM]	TGI [7] [µM]	TGI [8] [µM]	TGI [9] [µM]	TGI [10] [µM]	TGI [11] [µM]	TGI [12] [µM]	TGI [13] [µM]	TGI [14] [µM]	TGI [15] [µM]	TGI [16] [µM]	TGI [17] [µM]
N#CC(C(=O)CCC(=O)Nc1cccc(C(F)(F)F)c1)c1ccccc1 (stereo unspecified)	> 100	> 100	> 100	> 100	> 100	> 100	> 100	> 100	> 100	> 100	> 100	> 100	> 100	> 100	> 100	> 100	–
O=c1[nH]nc(CNc2ccc(Cl)cc2Cl)c2ccccc12	43.2	51.7	90.6	37.1	72.9	89.1	> 100	75.2	> 100	40.1	> 100	> 100	52.4	> 100	> 100	92.7	38.1
CC(C)(C)OC(=O)N1CC(C)(C)N2C(=O)C3(CCCO3)C12 (stereo unspecified)	> 100	> 100	> 100	> 100	> 100	> 100	> 100	> 100	> 100	> 100	> 100	53.1	> 100	> 100	30.4	> 100	> 100
O=C1NC(=S)NC(=O)C1=CC1CC1	> 100	> 100	> 100	> 100	> 100	> 100	> 100	> 100	> 100	> 100	> 100	> 100	> 100	> 100	> 100	> 100	> 100
CC(C)c1cccc(C(C)C)c1NC(=O)C(=O)C1CCC2=C(Sc3ccccc3N2)C1=O (stereo unspecified)	> 100	> 100	> 100	> 100	> 100	> 100	> 100	> 100	> 100	> 100	> 100	> 100	> 100	> 100	32.5	> 100	> 100
CCc1cccc(C(C)CC)c1NC(=O)C(=O)Cc1nc2ccccc2o1 (stereo unspecified)	> 50	> 50	> 50	> 50	> 50	> 50	> 50	> 50	> 50	> 50	> 50	> 50	> 50	> 50	> 50	> 50	> 50
CSc1ccc2c(cc1=O)C(NC(=O)c1ccccc1)CCc1cc(O)c(O)c(O)c1-2 (stereo unspecified)	> 100	88	32.7	79.7	> 100	35.3	27.5	3.62	30	60.8	65	62.6	> 100	> 100	29.1	> 100	> 100
O=c1c(C(c2ccc([N+](=O)[O-])cc2)c2c(O)c3ccccc3n(-c3ccccc3)c2=O)c(O)c2ccccc2n1-c1ccccc1	> 100	> 100	> 100	73.5	> 100	30.7	82.5	> 100	27.2	54.7	> 100	57.1	66.5	> 100	57.7	–	> 100
Nc1ccn(CCOC(c2ccccc2)P(=O)(O)O)c(=O)n1 (stereo unspecified)	> 100	> 100	> 100	> 100	> 100	> 100	> 100	> 100	> 100	> 100	> 100	–	> 100	> 100	> 100	> 100	> 100
CC(C)(CCl)NC(=O)c1cccc(C(=O)NC(C)(C)CCl)n1	> 100	> 100	> 100	> 100	> 100	> 100	> 100	> 100	> 100	> 100	> 100	> 100	> 100	> 100	> 100	–	> 100
CCCCCCCC(=O)OCC1OC(n2cc(F)c(=O)[nH]c2=O)C(N)C(O)C1O (stereo unspecified)	> 100	> 100	> 100	> 100	> 100	> 100	> 100	> 100	–	> 100	> 100	> 100	> 100	> 100	> 100	> 100	> 100
CSc1nc(NC2OCC(OC(C)=O)C(OC(C)=O)C2OC(C)=O)c2c(n1)OCC2=O (stereo unspecified)	> 100	> 100	> 100	> 100	> 100	> 100	> 100	> 100	> 100	> 100	> 100	> 100	> 100	> 100	> 100	> 100	> 100
Brc1ccc(C=NC23CC4CC(CC(C4)C2)C3)cc1	> 100	> 100	> 100	> 100	> 100	> 100	> 100	> 100	> 100	> 100	> 100	> 100	> 100	> 100	> 100	> 100	> 100

Reference: PubChem BioAssay (NCI)
